According to patent publication US20240043883A1 (Board of Trustees of Michigan State University, priority 2021, published 2024):

Columns and labels:
Cg10062 (E114N) = assay: In vitro 3-HP synthesis from ACA with cofactor recycling (Cg10062 (E114N), YdfG, PTDH), HPLC and 1H NMR; assay type: biochemical, Corynebacterium glutamicum; details: 100 mM ACA, 0.001-1 eq NADP+; hydration significantly faster at lower NADP+
Excerpt: (§1) This in vitro pathway developed in this study utilizes the novel Cg10062 (E114N) hydratase-only mutant with two other enzymes, YdfG and PTDH (FIG. 1). YdfG is a NADP^+-dependent 3-hydroxy acid dehydrogenase from E. coli and has previously been used for the in vivo production of 3-HP via the β-alanine pathway. […] For our system to be applied practically, the cost of cofactor is an important consideration. NADPH is an expensive cofactor and in order for the pathway to be an efficient, cost-effective pathway, the use of sub-stoichiometric amounts of co-factor was carried out. […] The formation of 3-HP in these assays were also confirmed using ^1H NMR (FIG. 4A-C).
(§2) All stocks solutions were prepared in 100 mM sodium phosphate pH 8.0. Ethylene glycol (20% w/v) was added to all enzyme stock solutions. […] Each reaction was carried out in duplicate at 25° C. with constant slow mixing on a rocking platform. Reactions were initiated by the addition of ACA. Samples from each reaction were quenched at indicated timepoints for analysis by HPLC and ^1H NMR, as described below.
All samples (100 μL) were quenched and by addition of 5 μL of 18 M sulfuric acid. The final volume was adjusted to 500 μL using 0.01 N sulfuric acid. The samples were prepared for HPLC using Whatman Mini-UniPrep® G2 syringeless filters with a glass microfiber membrane. […]

[1] = target: T1, Corynebacterium glutamicum Cg10062 variant E114N, SEQ ID NO: 62 (Corynebacterium glutamicum, UniProt Q8NU77, E115N); assay: Effect of NADP(H) on ACA hydration during in vitro 3-HP synthesis with cofactor recycling; assay type: biochemical; details: 100 mM ACA conversion to 3-HP with 0.001-1 eq NADP^+, 25 °C, pH 8.0
T1 sequence (Q8NU77 with tags, fused parts or gaps E115N): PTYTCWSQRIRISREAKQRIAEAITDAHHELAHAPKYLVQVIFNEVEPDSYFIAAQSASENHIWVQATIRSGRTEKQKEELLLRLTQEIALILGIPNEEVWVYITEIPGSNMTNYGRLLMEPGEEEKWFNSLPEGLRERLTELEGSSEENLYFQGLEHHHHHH
Excerpt: as §1, §2
All samples (100 μL) were quenched and by addition of 5 μL of 18 M sulfuric acid. The final volume was adjusted to 500 μL using 0.01 N sulfuric acid. The samples were prepared for HPLC using Whatman Mini-UniPrep® G2 syringeless filters with a glass microfiber membrane.

[2] = 1H NMR characterization of YdfG-catalyzed reduction of MSA; assay type: biochemical; details: provided with NADPH as a cofactor
Protocol: The volume was adjusted to 680 μL with 100 mM sodium phosphate pH 8.0. The reaction was initiated with the addition of Cg10062 (E114D) (20 μL of 3 mg mL^−1 stock). ^1H NMR spectra were obtained after incubating the samples at 25° C. for 1 h. […] Resonances at δ 2.23; (t, 2H) and δ 3.58; (t, 2H) correspond to 3-hydroxypropionate.

pH dependence of MmsB = assay type: biochemical; details: in potassium phosphate; 25° C.
Protocol: The pH dependence of MmsB was measured using four different buffer systems: 100 mM potassium phosphate, 50 mM Tris-HCl, 50 mM bis-tris propane and 50 mM HEPES buffers for pH 6.5-8.0, 7.0-9.0, 7.0-9.0 and 7.0-8.0, respectively. The pH dependence was studied using the respective enzyme assay used for kinetic characterization as described previously. All pH studies were carried out in triplicate (1 mL) on a Shimadzu UV2600 spectrophotometer at 25° C. and checked to ensure that the final pH of each assay remained unchanged with the addition of assay components. All stock solutions were prepared in water and the assays were carried out in the respective buffers for each pH.

NADP(H) [listing 1 of 2 here]
effect on Cg10062 (E114N) (hydration of ACA to MSA) (Cg10062 (E114N)): inhibitory effect

NADP(H) [listing 2 of 2 here]
inhibitory effect on Cg10062 (E114N) [1]: inhibitory effect

B1: YdfG: NADP+-dependent 3-hydroxy acid dehydrogenase from E. coli, SEQ ID NO: 75 (protein)
chain: MIVLVTGATAGFGECITRRFIQQGHKVIATGRRQERLQELKDELGDNLYIAQLDVRNRAAIEEMLASLPAEWCNIDILVNNAGLALGMEPAHKASVEDWETMIDTNNKGLVYMTRAVLPGMVERNHGHIINIGSTAGSWPYAGGNVYGATKAFVRQFSLNLRTDLHGTAVRVTDIEPGLVGGTEFSNVRFKGDDGKAEKTYQNTVALTPEDVSEAVWWVSTLPAHVNINTLEMMPVTQSYAGLNVHRQENLYFQGLEHHHHHH
modifications: YdfG from Escherichia coli plus TEV protease recognition site and C-terminal His6-tag
conversion of malonate semialdehyde to 3-HP [2]: complete conversion

B2: MmsB: 3-hydroxyisobutyrate dehydrogenase from P. putida KT2440, SEQ ID NO: 76 (protein)
chain: MRIAFIGLGNMGAPMARNLIKAGHQLNLFDLNKAVLAELAELGGQISPSPKDAAANSELVITMLPAAAHVRSVYLNEDGVLAGIRPGTPTVDCSTIDPQTARDVSKAAAAKGVDMGDAPVSGGTGGAAAGTLTFMVGASTELFASLKPVLEQMGRNIVHCGEVGTGQIAKICNNLLLGISMIGVSEAMALGNALGIDTKVLAGIINSSTGRCWSSDTYNPWPGIIETAPASRGYTGGFGAELMLKDLGLATEAARQAHQPVILGAVAQQLYQAMSLRGEGGKDFSAIVEGYRKKDENLYFQGLEHHHHHH
modifications: MmsB from Pseudomonas putida KT2440 plus TEV protease recognition site and C-terminal His6-tag
pH of highest activity (pH dependence of MmsB): 7
